Test results published in BindingDB's records for patent US20250034165 (Chia Tai Tianqing Pharmaceutical Group, 2025).

Experiments:
[1] = target: Epidermal growth factor receptor (Homo sapiens, UniProt P00533); test: Inhibitory Activity for EGFR (WT) Kinase
Experimental: A 50 ng/μL EGFR (WT, Carna) stock solution was diluted with a kinase buffer (50 mM HEPES, 10 mM MgCl2, 2 mM DTT, 1 mM EGTA, 0.01% Tween 20), and 6 μL of 1.67× working solution at 0.005 ng/μL (final concentration: 0.003 ng/μL) was added to each well. Different compounds dissolved in DMSO were added to the wells using a nanoliter pipettor, resulting in the final concentrations of the compounds of 100 nM to 0.0244 nM (4-fold gradient for 7 concentrations in total), and blank control wells (without enzyme) and negative control wells (with enzyme, plus vehicle DMSO) were set, 2 replicate wells for each concentration. After enzyme was reacted with the compound or vehicle for 30 min, 5×ATP at 25 μM (final concentration: 5 μM, Sigma) prepared with a kinase buffer was mixed with 5× substrate at 0.5 μM (final concentration: 0.1 μM, ULight-poly GT, PerkinElmer) at a ratio of 1:1 (v:v), and the mixture was added to each well at 4 μL/well. After being sealed with a film, the plate was incubated at room temperature for 2 h, and then 5 μL of 4×EDTA at 40 mM (final concentration: 10 mM) was added to each well. After the plate was incubated for 5 min at room temperature, 5 μL of 4× detection reagent at 8 nM (final concentration: 2 nM, Eu-anti-phospho-tyrosine antibody, PerkinElmer) was added to each well.

[2] = target: Epidermal growth factor receptor (EGFR)(L858R)(T790M) (Homo sapiens, UniProt P00533, L858R/T790M); test: Inhibitory Activity for EGFR (L858R/T790M) Kinase
Experimental: (§1) A 50 ng/μL EGFR (L858R/T790M, Carna) stock solution was diluted with a kinase buffer (50 mM HEPES, 10 mM MgCl2, 2 mM DTT, 1 mM EGTA, 0.01% Tween 20), and 6 μL of 1.67× working solution at 0.004175 ng/μL (final concentration: 0.0025 ng/μL) was added to each well. Different compounds dissolved in DMSO were added to wells using a nanoliter pipettor, resulting in the final concentrations of the compounds of 10 nM to 0.0024 nM (4-fold gradient, 7 concentrations in total), and blank control wells (without enzyme) and negative control wells (with enzyme, plus vehicle DMSO) were set, 2 replicate wells for each concentration. After enzyme was reacted with the compound or vehicle for 30 min, 5×ATP at 25 μM (final concentration: 5 μM, Sigma) prepared with a kinase buffer was mixed with 5× substrate at 0.5 μM (final concentration: 0.1 μM, ULight-poly GT, PerkinElmer) at a ratio of 1:1 (v:v), and the mixture was added to each well at 4 μL/well. After being sealed with a film, the plate was incubated at room temperature for 2 h, and then 5 μL of 4×EDTA at 40 mM (final concentration: 10 mM) was added to each well. After the plate was incubated for 5 min at room temperature, 5 μL of 4× detection reagent at 8 nM (final concentration: 2 nM, Eu-anti-phospho-tyrosine antibody, PerkinElmer) was added to each well. After being incubated at room temperature for 1 h, the plate was read using a PerkinElmer Envision multi-mode microplate reader (excitation: 320 nm, emission: 665 nm), and IC50 was calculated by four-parameter fitting.

[3] = target: Epidermal growth factor receptor [T790M,C797S,L858R] (UniProt P00533, C797S/L858R/T790M); test: Inhibitory Activity for EGFR (L858R/T790M/C797S) Kinase
Experimental: as §1, with “(L858R/T790M/C797S, BPS)” for “(L858R/T790M, Carna)”, “0.00167” for “0.004175”, “0.001” for “0.0025”

[4] = target: Epidermal growth factor receptor [T790M,L858R] (Homo sapiens, UniProt P00533, L858R/T790M); test: Inhibitory Activity for EGFR (L858R/T790M) Kinase
Experimental: as §1

Chain of Epidermal growth factor receptor [T790M,C797S,L858R] (P00533 25-1210 T790M/C797S/L858R limits assumed): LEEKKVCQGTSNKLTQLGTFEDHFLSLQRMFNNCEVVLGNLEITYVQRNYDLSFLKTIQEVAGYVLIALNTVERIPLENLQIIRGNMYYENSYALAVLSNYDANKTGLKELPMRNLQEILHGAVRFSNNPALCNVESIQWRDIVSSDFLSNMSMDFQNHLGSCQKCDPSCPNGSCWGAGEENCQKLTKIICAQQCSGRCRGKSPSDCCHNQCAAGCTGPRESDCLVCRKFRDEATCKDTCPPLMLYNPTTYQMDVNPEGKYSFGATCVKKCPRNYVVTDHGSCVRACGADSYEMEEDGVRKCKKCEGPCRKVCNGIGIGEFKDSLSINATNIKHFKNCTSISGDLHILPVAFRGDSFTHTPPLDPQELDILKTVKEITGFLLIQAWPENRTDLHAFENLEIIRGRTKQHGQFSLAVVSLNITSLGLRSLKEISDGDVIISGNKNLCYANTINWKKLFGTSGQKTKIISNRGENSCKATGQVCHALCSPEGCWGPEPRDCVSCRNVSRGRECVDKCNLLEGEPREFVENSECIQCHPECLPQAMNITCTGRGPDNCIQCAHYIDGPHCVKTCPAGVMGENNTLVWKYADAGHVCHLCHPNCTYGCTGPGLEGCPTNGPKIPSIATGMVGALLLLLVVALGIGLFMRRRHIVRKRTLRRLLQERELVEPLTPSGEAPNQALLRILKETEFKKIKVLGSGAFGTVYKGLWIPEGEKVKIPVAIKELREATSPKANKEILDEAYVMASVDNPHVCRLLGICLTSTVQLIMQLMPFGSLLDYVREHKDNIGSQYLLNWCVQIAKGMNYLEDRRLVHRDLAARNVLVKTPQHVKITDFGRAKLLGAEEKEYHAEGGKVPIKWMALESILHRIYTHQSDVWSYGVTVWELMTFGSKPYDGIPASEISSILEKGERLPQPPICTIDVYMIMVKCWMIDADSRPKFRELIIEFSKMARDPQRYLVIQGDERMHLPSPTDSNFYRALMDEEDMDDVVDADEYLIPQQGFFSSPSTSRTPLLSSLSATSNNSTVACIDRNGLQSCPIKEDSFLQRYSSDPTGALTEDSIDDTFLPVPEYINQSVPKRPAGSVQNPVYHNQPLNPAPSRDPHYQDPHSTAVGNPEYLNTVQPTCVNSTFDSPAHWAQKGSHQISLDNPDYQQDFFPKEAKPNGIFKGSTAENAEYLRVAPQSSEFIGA
Chain of Epidermal growth factor receptor [T790M,L858R] (P00533 25-1210 T790M/L858R limits assumed): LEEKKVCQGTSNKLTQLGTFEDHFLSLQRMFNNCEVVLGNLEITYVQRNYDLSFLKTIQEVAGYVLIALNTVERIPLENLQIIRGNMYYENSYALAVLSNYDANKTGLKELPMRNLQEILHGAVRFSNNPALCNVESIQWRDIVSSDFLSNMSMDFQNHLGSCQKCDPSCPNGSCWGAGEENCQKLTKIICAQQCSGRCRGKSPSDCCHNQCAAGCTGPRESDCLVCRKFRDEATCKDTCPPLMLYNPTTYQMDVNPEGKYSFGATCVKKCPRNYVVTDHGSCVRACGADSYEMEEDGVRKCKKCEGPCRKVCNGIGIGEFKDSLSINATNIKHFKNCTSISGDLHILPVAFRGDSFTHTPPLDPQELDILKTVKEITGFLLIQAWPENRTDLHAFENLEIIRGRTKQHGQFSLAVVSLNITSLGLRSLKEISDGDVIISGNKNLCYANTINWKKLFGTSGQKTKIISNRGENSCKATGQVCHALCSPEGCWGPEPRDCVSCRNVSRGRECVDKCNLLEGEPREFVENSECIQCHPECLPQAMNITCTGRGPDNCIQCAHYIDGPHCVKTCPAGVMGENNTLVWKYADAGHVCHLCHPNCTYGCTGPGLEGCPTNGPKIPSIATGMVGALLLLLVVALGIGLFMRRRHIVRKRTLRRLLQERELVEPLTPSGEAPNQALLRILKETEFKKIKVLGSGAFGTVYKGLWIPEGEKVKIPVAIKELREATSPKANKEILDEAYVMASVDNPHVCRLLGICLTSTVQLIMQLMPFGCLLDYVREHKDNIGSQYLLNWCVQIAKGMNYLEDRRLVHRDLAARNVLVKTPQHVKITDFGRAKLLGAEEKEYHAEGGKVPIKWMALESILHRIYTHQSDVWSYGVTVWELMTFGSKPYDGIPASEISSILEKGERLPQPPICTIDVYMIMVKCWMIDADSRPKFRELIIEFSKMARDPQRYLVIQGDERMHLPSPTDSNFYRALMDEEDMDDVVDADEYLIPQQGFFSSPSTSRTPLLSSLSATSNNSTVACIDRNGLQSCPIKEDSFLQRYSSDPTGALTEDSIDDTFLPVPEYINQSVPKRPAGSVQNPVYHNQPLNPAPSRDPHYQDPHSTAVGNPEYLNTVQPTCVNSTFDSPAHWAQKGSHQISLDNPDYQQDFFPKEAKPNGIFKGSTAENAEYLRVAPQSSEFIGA
Chain of Epidermal growth factor receptor (EGFR)(L858R)(T790M) (P00533 25-1210 T790M/L858R limits assumed): as above
Chain of Epidermal growth factor receptor (P00533 whole entry): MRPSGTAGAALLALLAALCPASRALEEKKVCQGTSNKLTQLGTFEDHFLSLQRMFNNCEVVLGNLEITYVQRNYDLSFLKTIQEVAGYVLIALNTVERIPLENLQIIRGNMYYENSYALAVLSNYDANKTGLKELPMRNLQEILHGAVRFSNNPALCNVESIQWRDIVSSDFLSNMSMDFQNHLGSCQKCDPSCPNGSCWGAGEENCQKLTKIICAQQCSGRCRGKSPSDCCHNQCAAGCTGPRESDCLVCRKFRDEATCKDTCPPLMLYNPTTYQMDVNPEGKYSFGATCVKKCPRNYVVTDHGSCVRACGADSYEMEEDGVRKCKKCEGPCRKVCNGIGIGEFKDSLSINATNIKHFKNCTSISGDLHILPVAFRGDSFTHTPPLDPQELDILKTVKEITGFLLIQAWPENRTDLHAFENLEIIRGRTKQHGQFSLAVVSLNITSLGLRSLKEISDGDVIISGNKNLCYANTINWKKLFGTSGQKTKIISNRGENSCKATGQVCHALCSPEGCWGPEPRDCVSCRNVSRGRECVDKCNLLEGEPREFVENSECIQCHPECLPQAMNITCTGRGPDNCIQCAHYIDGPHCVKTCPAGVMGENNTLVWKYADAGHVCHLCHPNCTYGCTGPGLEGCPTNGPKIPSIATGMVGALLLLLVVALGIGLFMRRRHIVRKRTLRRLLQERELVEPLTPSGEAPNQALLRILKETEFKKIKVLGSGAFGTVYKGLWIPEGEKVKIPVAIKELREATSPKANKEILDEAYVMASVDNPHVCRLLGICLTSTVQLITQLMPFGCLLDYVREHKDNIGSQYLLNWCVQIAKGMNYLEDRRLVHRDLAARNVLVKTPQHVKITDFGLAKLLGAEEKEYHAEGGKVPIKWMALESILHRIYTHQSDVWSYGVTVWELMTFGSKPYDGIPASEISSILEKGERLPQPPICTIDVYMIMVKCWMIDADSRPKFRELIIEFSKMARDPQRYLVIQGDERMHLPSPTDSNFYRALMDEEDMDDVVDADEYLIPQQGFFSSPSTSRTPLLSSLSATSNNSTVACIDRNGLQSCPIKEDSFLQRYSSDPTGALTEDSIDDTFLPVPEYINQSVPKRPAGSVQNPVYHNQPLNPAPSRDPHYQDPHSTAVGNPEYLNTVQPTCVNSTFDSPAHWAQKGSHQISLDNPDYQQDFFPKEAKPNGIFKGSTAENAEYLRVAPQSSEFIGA

IC50 [1] | IC50 [2] | IC50 [3] | IC50 [4] | SMILES
6.2 nM | 0.007 nM | 0.123 nM | – | Cc1cc2cc(n1)-c1cnn(C)c1OCCC[C@@H](C1CC1)CN1/C(=N/C2=O)Nc2cc(NC3CCC3)ccc21 [US20250034165, Example 79]
0.51 nM | – | – | 0.023 nM | CCN1CCC(Nc2ccc3c(c2)N/C2=N\C(=O)c4cc(C)nc(c4)-c4cnn(C)c4OCCC[C@@H](C4CC4)CN23)CC1 [US20250034165, Example 48]
2 nM | 0.088 nM | 0.095 nM | – | Cc1cc2cc(n1)-c1cnn(C3CC3)c1OCCC[C@@H](C)CN1/C(=N/C2=O)Nc2cc(N[C@@H]3CCOC3)ccc21 [US20250034165, Example 13]
0.79 nM | 0.04 nM | 0.023 nM | – | Cc1cc2cc(n1)-c1cnn(C)c1OCCC[C@@H](C1CC1)CN1/C(=N/C2=O)Nc2ccc(NCCN3CCCCC3)cc21 [US20250034165, Example 83]
– | – | 0.16 nM | 0.22 nM | [2H]C([2H])([2H])N(C[C@H](C)Nc1ccc2c(c1)N/C1=N/C(=O)c3cc(C)nc(c3)-c3cnn(C)c3OCCC[C@@H](C3CC3)CN12)C([2H])([2H])[2H] [US20250034165, Example 124]
0.72 nM | 0.011 nM | 0.014 nM | – | Cc1cc2cc(n1)-c1cnn(C)c1OCCC[C@@H](C1CC1)CN1/C(=N/C2=O)Nc2cc(NCCCCN)ccc21 [US20250034165, Example 53]
1.4 nM | 0.027 nM | 0.037 nM | – | Cc1cc2cc(n1)-c1cnn(C)c1OCCC[C@@H](C1CC1)CN1/C(=N/C2=O)Nc2cc(NC(C)C3COC3)ccc21 (stereo partly specified) [US20250034165, Example 37]
1.5 nM | 0.033 nM | 0.035 nM | – | Cc1cc2cc(n1)-c1cnn(C)c1OCCC[C@@H](C1CC1)CN1/C(=N/C2=O)Nc2cc(NCC3COC3)ccc21 [US20250034165, Example 36]
0.34 nM | 0.018 nM | 0.029 nM | – | Cc1cc2cc(n1)-c1cnn(C)c1OCCC[C@@H](C1CC1)CN1/C(=N/C2=O)Nc2cc(NC3CNC3)ccc21 [US20250034165, Example 32]
0.39 nM | 0.017 nM | 0.025 nM | – | Cc1cc2cc(n1)-c1cnn(C)c1OCCC[C@@H](C1CC1)CN1/C(=N/C2=O)Nc2ccc(NC3CCN(C(C)C)CC3)cc21 [US20250034165, Example 54]
0.93 nM | 0.038 nM | 0.021 nM | – | Cc1cc2cc(n1)-c1cnn(C)c1OCCC[C@@H](C1CC1)CN1/C(=N/C2=O)Nc2cc(NCCN3CCCC3)ccc21 [US20250034165, Example 72]
– | – | – | 0.16 nM | [2H]C([2H])([2H])N(C[C@H](C)Nc1ccc2c(c1)N1C[C@H](C3CC3)CCCOc3c(cnn3C)-c3cc(cc(C)n3)C(=O)/N=C\1N2)C([2H])([2H])[2H] [US20250034165, Example 123]
2.6 nM | 0.19 nM | 0.2 nM | – | Cc1cc2cc(n1)-c1cnn(C3CC3)c1OCCC[C@@H](C)CN1/C(=N/C2=O)Nc2cc(NC3CCN(C)CC3)ccc21 [US20250034165, Example 12]
0.12 nM | 0.02 nM | 0.019 nM | – | Cc1cc2cc(n1)-c1cnn(C)c1OCCC[C@@H](C1CC1)CN1/C(=N/C2=O)Nc2cc(NC3CCN(C)CC3)ccc21 [US20250034165, Example 10]
0.5 nM | 0.017 nM | 0.022 nM | – | CCN1CCC(Nc2ccc3c(c2)N2C[C@H](C4CC4)CCCOc4c(cnn4C)-c4cc(cc(C)n4)C(=O)/N=C/2N3)CC1 [US20250034165, Example 55]
0.57 nM | – | 0.035 nM | 0.026 nM | CNCCCCNc1ccc2c(c1)N/C1=N/C(=O)c3cc(C)nc(c3)-c3cnn(C)c3OCCC[C@@H](C3CC3)CN12 [US20250034165, Example 52]
2.2 nM | 0.038 nM | 0.042 nM | – | Cc1cc2cc(n1)-c1cnn(C)c1OCCC[C@@H](C1CC1)CN1/C(=N/C2=O)Nc2cc(NC3C(C)(C)OC3(C)C)ccc21 [US20250034165, Example 31]
0.7 nM | 0.011 nM | 0.008 nM | – | Cc1cc2cc(n1)-c1cnn(C3CC3)c1OCCC[C@@H](C)CN1/C(=N/C2=O)Nc2ccc(NCCN(C)C)cc21 [US20250034165, Example 17]
2.2 nM | – | 0.051 nM | 0.048 nM | CNCCCNc1ccc2c(c1)N/C1=N\C(=O)c3cc(C)nc(c3)-c3cnn(C)c3OCCC[C@@H](C3CC3)CN12 [US20250034165, Example 49]
1.6 nM | 0.027 nM | 0.03 nM | – | Cc1cc2cc(n1)-c1cnn(C)c1OCCC[C@@H](C1CC1)CN1/C(=N/C2=O)Nc2cc(NCC3(C)COC3)ccc21 [US20250034165, Example 40]
– | – | 0.75 nM | 0.52 nM | [2H]C([2H])([2H])N(C[C@@H](C)Nc1ccc2c(c1)N/C1=N/C(=O)c3cc(C)nc(c3)-c3cnn(C)c3OCCC[C@@H](C3CC3)CN12)C([2H])([2H])[2H] [US20250034165, Example 146]
0.99 nM | 0.015 nM | 0.029 nM | – | Cc1cc2cc(n1)-c1cnn(C)c1OCCC[C@@H](C1CC1)CN1/C(=N/C2=O)Nc2cc(NCCCN3CCCC3)ccc21 [US20250034165, Example 70]
